Experimental data published in PubChem BioAssay (NCI).
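Grown in 96-well plates, cells were treated for 48 hours with each compound at five concentrations. Insufficient inhibition: endpoint recorded as highest concentration tested. TGI: total growth inhibition.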

Assays:
Assay in all cases: inhibition of tumour cell growth, NCI panel, 48 h
SF-539 CNS = test system: SF-539 CNS
OVCAR-5 ovarian = test system: OVCAR-5 ovarian
NCI-H23 lung = test system: NCI-H23 lung
MDA-N = test system: MDA-N
OVCAR-4 ovarian = test system: OVCAR-4 ovarian
M14 melanoma = test system: M14 melanoma
OVCAR-8 ovarian = test system: OVCAR-8 ovarian
A498 renal = test system: A498 renal
IGROV1 ovarian = test system: IGROV1 ovarian
CCRF-CEM leukemia = test system: CCRF-CEM leukemia
SN12C renal = test system: SN12C renal
HT29 colon = test system: HT29 colon
NCI/ADR-RES ovarian = test system: NCI/ADR-RES ovarian
TK-10 renal = test system: TK-10 renal
COLO 205 colon = test system: COLO 205 colon
SW-620 colon = test system: SW-620 colon
EKVX NSCLC = test system: EKVX NSCLC
HS 578T breast = test system: HS 578T breast
SK-MEL-28 melanoma = test system: SK-MEL-28 melanoma
LOX IMVI melanoma = test system: LOX IMVI melanoma
MDA-MB-231 breast = test system: MDA-MB-231 breast
ACHN renal = test system: ACHN renal
NCI-H522 lung = test system: NCI-H522 lung
HCT-116 colon = test system: HCT-116 colon
MALME-3M melanoma = test system: MALME-3M melanoma
SK-MEL-2 melanoma = test system: SK-MEL-2 melanoma
MOLT-4 leukemia = test system: MOLT-4 leukemia
SF-295 CNS = test system: SF-295 CNS
BT-549 breast = test system: BT-549 breast
HCC-2998 colon = test system: HCC-2998 colon
PC-3 prostate = test system: PC-3 prostate
HOP-62 NSCLC = test system: HOP-62 NSCLC
CAKI-1 renal = test system: CAKI-1 renal
SF-268 CNS = test system: SF-268 CNS
UO-31 renal = test system: UO-31 renal
SNB-19 CNS = test system: SNB-19 CNS
NCI-H460 lung = test system: NCI-H460 lung
DU-145 prostate = test system: DU-145 prostate
UACC-257 melanoma = test system: UACC-257 melanoma
KM12 colon = test system: KM12 colon
T-47D breast = test system: T-47D breast
SR leukemia = test system: SR leukemia
U251 CNS = test system: U251 CNS
NCI-H226 lung = test system: NCI-H226 lung
OVCAR-3 ovarian = test system: OVCAR-3 ovarian
RXF 393 renal = test system: RXF 393 renal
HOP-92 NSCLC = test system: HOP-92 NSCLC
786-0 renal = test system: 786-0 renal
K-562 leukemia = test system: K-562 leukemia
MCF7 breast = test system: MCF7 breast
A549 NSCLC = test system: A549 NSCLC
MDA-MB-435 = test system: MDA-MB-435
SK-MEL-5 melanoma = test system: SK-MEL-5 melanoma
SNB-75 CNS = test system: SNB-75 CNS
SK-OV-3 ovarian = test system: SK-OV-3 ovarian
HL-60(TB) leukemia = test system: HL-60(TB) leukemia
HCT-15 colon = test system: HCT-15 colon
UACC-62 melanoma = test system: UACC-62 melanoma

Compound `COc1cc(C2CC(C)(N3CCCC3)Oc3cc4c(cc32)OCO4)cc(OC)c1OC` (stereo not given) has a TGI (SF-539 CNS) of 0.603 µM, a TGI (OVCAR-5 ovarian) of over 100 µM and a TGI (NCI-H23 lung) of over 49.6 µM. The TGI (MDA-N) was 0.0552 µM, the TGI (OVCAR-4 ovarian) was over 100 µM and the TGI (M14 melanoma) was over 100 µM. The TGI (OVCAR-8 ovarian) was over 44.7 µM, the TGI (A498 renal) was 6.12 µM and the TGI (IGROV1 ovarian) was over 51.2 µM. It also gave a TGI (CCRF-CEM leukemia) of over 100 µM, a TGI (SN12C renal) of 43.7 µM and a TGI (HT29 colon) of 0.492 µM. It also gave a TGI (NCI/ADR-RES ovarian) of over 100 µM, a TGI (TK-10 renal) of over 64 µM and a TGI (COLO 205 colon) of over 100 µM. The TGI (SW-620 colon) was 39 µM, the TGI (EKVX NSCLC) was over 100 µM and the TGI (HS 578T breast) was over 100 µM. For the same compound, the TGI (SK-MEL-28 melanoma) was 73.8 µM, the TGI (LOX IMVI melanoma) was 15 µM and the TGI (MDA-MB-231 breast) was 21.9 µM. It also gave a TGI (ACHN renal) of over 100 µM, a TGI (NCI-H522 lung) of 2.19 µM and a TGI (HCT-116 colon) of over 100 µM. It also gave a TGI (MALME-3M melanoma) of over 50.7 µM, a TGI (SK-MEL-2 melanoma) of over 100 µM and a TGI (MOLT-4 leukemia) of over 49.3 µM. It also gave a TGI (SF-295 CNS) of 0.0909 µM, a TGI (BT-549 breast) of 87.7 µM and a TGI (HCC-2998 colon) of 6.14 µM. The TGI (PC-3 prostate) was 3.55 µM, the TGI (HOP-62 NSCLC) was over 100 µM and the TGI (CAKI-1 renal) was over 100 µM. The TGI (SF-268 CNS) was over 87.6 µM, the TGI (UO-31 renal) was over 100 µM and the TGI (SNB-19 CNS) was over 100 µM. The TGI (NCI-H460 lung) was 3.5 µM, the TGI (DU-145 prostate) was over 100 µM and the TGI (UACC-257 melanoma) was 32.5 µM. It also gave a TGI (KM12 colon) of over 100 µM, a TGI (T-47D breast) of over 100 µM and a TGI (SR leukemia) of over 100 µM. The TGI (U251 CNS) was 16.4 µM, the TGI (NCI-H226 lung) was over 82.4 µM and the TGI (OVCAR-3 ovarian) was 45 µM. It also gave a TGI (RXF 393 renal) of 0.468 µM, a TGI (HOP-92 NSCLC) of over 100 µM and a TGI (786-0 renal) of 17 µM. It also gave a TGI (K-562 leukemia) of 10.9 µM, a TGI (MCF7 breast) of 17.9 µM and a TGI (A549 NSCLC) of over 100 µM.
With `O=S(=O)(/N=C(\NO)Nc1ccc(Cl)cc1)c1cc2ccccc2o1` the TGI (SF-539 CNS) was over 100 µM, the TGI (OVCAR-5 ovarian) was 57.2 µM and the TGI (NCI-H23 lung) was 48 µM. It also gave a TGI (MDA-N) of 59.6 µM, a TGI (OVCAR-4 ovarian) of 56 µM and a TGI (M14 melanoma) of 49.6 µM. The TGI (OVCAR-8 ovarian) was 39.8 µM, the TGI (MDA-MB-435) was 29.7 µM and the TGI (IGROV1 ovarian) was 30.7 µM. The TGI (CCRF-CEM leukemia) was 57.4 µM, the TGI (SN12C renal) was 36.1 µM and the TGI (HT29 colon) was 47.2 µM. The TGI (NCI/ADR-RES ovarian) was 55.1 µM, the TGI (TK-10 renal) was over 100 µM and the TGI (COLO 205 colon) was 51.1 µM. It also gave a TGI (SW-620 colon) of 65.1 µM, a TGI (EKVX NSCLC) of 41.9 µM and a TGI (HS 578T breast) of 52.8 µM. For the same compound, the TGI (SK-MEL-28 melanoma) was 35 µM, the TGI (SK-MEL-5 melanoma) was 30.9 µM and the TGI (SNB-75 CNS) was over 100 µM. For the same compound, the TGI (LOX IMVI melanoma) was 23.9 µM, the TGI (MDA-MB-231 breast) was 40.9 µM and the TGI (ACHN renal) was 46.1 µM. It also gave a TGI (NCI-H522 lung) of 25.7 µM, a TGI (HCT-116 colon) of 24.8 µM and a TGI (MALME-3M melanoma) of 45.2 µM. It also gave a TGI (SK-OV-3 ovarian) of 62.3 µM, a TGI (SK-MEL-2 melanoma) of 35.9 µM and a TGI (MOLT-4 leukemia) of over 100 µM. For the same compound, the TGI (SF-295 CNS) was 47 µM, the TGI (BT-549 breast) was 34.8 µM and the TGI (PC-3 prostate) was 69 µM. For the same compound, the TGI (HOP-62 NSCLC) was 83 µM, the TGI (CAKI-1 renal) was 36.7 µM and the TGI (SF-268 CNS) was 55.7 µM. The TGI (UO-31 renal) was 91.2 µM, the TGI (SNB-19 CNS) was over 100 µM and the TGI (NCI-H460 lung) was over 100 µM. For the same compound, the TGI (DU-145 prostate) was over 100 µM, the TGI (HL-60(TB) leukemia) was 37.5 µM and the TGI (UACC-257 melanoma) was 51.7 µM. It also gave a TGI (KM12 colon) of 33.5 µM, a TGI (T-47D breast) of over 100 µM and a TGI (U251 CNS) of 33.4 µM. It also gave a TGI (NCI-H226 lung) of 71.7 µM, a TGI (OVCAR-3 ovarian) of 28.5 µM and a TGI (HCT-15 colon) of 34.2 µM. It also gave a TGI (RXF 393 renal) of 95 µM, a TGI (UACC-62 melanoma) of 29.3 µM and a TGI (HOP-92 NSCLC) of 29 µM. The TGI (786-0 renal) was 39.3 µM, the TGI (K-562 leukemia) was over 100 µM and the TGI (A549 NSCLC) was over 100 µM.
